The source of these data is US20120020940A1, “ANTIMICROBIAL PEPTIDES” (Helmholtz Zentrum München Deutsches Forschungszentrum Für …, priority 2008, published 2012).

Common to all, as to type: cell-based
For assay [1], the system named is Alternaria alternata. The assay can be described thus: MIC, antifungal in-vitro inhibition assay (Example 2). The conditions noted are these: Table 1. Here is the method:
(§1) In-vitro inhibition assays were performed in sterile flat-bottom 96-well plates (Greiner bio-one, Frickenhausen). Antimicrobial peptides were dissolved in 0.01% acetic acid containing 0.2% BSA (500 μg/ml), filter sterilized and stored at −20° C. For inhibition assays dilutions of peptides ranging from 5 to 200 μg/ml were prepared and 10 μl (antibacterial assay) or 20 μl (antifungal assay) of each concentration was loaded per well.
(§2) Spores of fungi were collected by water washes of sporulating cultures grown on 2% malt extract agar and spore concentration was determined by microscopy. The concentration of the spores was adjusted to 1.5-2×10^3 spores/ml in 2% malt extract medium and 80 μl of fungal spores were added per well. The final peptide concentrations used in the fungal inhibition assays were […]. After overnight incubation at room temperature the plate were put on a rotary shaker (300 rpm) for further two days to ensure consistantly growth. Antifungal effects of the peptides were determined by a microplate reader (Alternaria, Fusarium) at OD590 nm or by visual screening of the plates (Botrytis, Cladosporium).
(§3) The lowest peptide concentration leading to complete inhibition of bacterial growth or spore germination/mycelial growth (minimal inhibition concentration, MIC) was determined for each organism-peptide combination. For each peptide concentration two identical inhibition assays were performed.

Assay [2] has as its system Botrytis cinerea. The description is as above. The conditions noted are these: Table 1. Here is the method: as §1, §2, §3
The test system of assay [3] is Cladosporium herbarum. Described as above. To be noted: Table 1. Here is the method: as §1, §2, §3
For assay [4], the system named is Clavibacter michiganensis. Nature of the assay: MIC and lethal concentration (Example 3). The conditions noted are these: Table 2; for MIC (>90% inhibition): 1-2 days at 25° C.; for LC, lethal concentration (100% inhibition): at least 4 days of incubation. The method, then:
as §1
(§4) Bacteria colonies from overnight agar plate cultures were resuspended into 5 ml LB-medium or HPG-medium (OD600 nm=0.08-0.1) and diluted into LB-medium/HPG-medium (1:100). 90 μl of this suspension containing about 10^5-10^6 CFU/ml of tested bacteria were added to each well resulting in final peptide concentrations of 0, 0.5, 1, 2, 5, 10, and 20 μg/ml. […] The lowest concentration, in which there is no observable growth (>90% inhibition) is referred to as minimal inhibitory concentration (MIC). […] For each peptide concentration two identical inhibition assays were performed.

The test system of assay [5] is Pectobacterium carotovorum. Nature of the assay: MIC and lethal concentration (Example 3). To be noted: Table 2; for MIC (>90% inhibition): 1-2 days at 25° C.; for LC, lethal concentration (100% inhibition): at least 4 days of incubation. Here is the method:
as §1, §4

Assay [6] has as its system Pseudomonas corrugata. Nature of the assay: MIC and lethal concentration (Example 3). The conditions noted are these: Table 2; for MIC (>90% inhibition): 1-2 days at 25° C.; for LC, lethal concentration (100% inhibition): at least 4 days of incubation. Here is the method: as §1, §4
Assay [7] concerns Pseudomonas syringae pv. syringae. Nature of the assay: MIC and lethal concentration (Example 3). The conditions noted are these: Table 2; for MIC (>90% inhibition): 1-2 days at 25° C.; for LC, lethal concentration (100% inhibition): at least 4 days of incubation. Here is the method: as §1, §4
Assay [8] relates to Pseudomonas syringae pv. tomato. Nature of the assay: MIC and lethal concentration (Example 3). The conditions noted are these: Table 2; for MIC (>90% inhibition): 1-2 days at 25° C.; for LC, lethal concentration (100% inhibition): at least 4 days of incubation. The method, then: as §1, §4
Assay [9] has as its system Xanthomonas vesicatoria. The assay can be described thus: MIC and lethal concentration (Example 3). To be noted: Table 2; for MIC (>90% inhibition): 1-2 days at 25° C.; for LC, lethal concentration (100% inhibition): at least 4 days of incubation. Here is the method: as §1, §4

No end group written: not given here. A value given as a limit tells only on which side of the number the result lay.

For the substance “LRALAKALKHKL-NH2 [SP11, LRALAKALKHKL -NH2]”, the “Minimal inhibition concentration (MIC) for complete inhibition of spore germination/mycelial growth” value in [1] is over 100 µg/mL; in [2] it was over 100 µg/mL; in assay [3], 20 µg/mL.

In the case of LRFAKKALKKLF-NH2 [SP10-3], the “MIC (>90% inhibition)” value in assay [4] is 2.5/2.5 μg/ml; in [5], >10/>10 μg/ml; in [6], 1.0 µg/mL; in [7] it was 0.25 µg/mL; in assay [8], 0.25/0.25 μg/ml; in assay [9] it was 2.5/2.5 μg/ml. Further, the “LC, lethal concentration (100% inhibition)” value (shortened to “LC … (100% inhibition)”) was 2.5/2.5 μg/ml in assay [4]; >10/>10 μg/ml in [5]; 2.5 µg/mL in assay [7]; 0.25/0.25 μg/ml in assay [8]; 2.5/2.5 μg/ml in assay [9].

Regarding LRFARRALRRLF-NH2 [SP10-9], the “MIC (>90% inhibition)” value in assay [4] is 1.0/1.0 μg/ml; in [5], 2.5 µg/mL; in assay [6] it was 0.5 µg/mL; in assay [7] it was 0.25 µg/mL; in assay [8] it was 0.25 µg/mL; in assay [9] it was 1.0 µg/mL. For the same substance, the “LC … (100% inhibition)” value is 1.0/1.0 μg/ml in assay [4]; 5.0 µg/mL in assay [5]; 2.5 µg/mL in assay [6]; 2.5 µg/mL in [7]; 0.5 µg/mL in assay [8]; 2.5 µg/mL in [9].

For LRFIKKILKKLI-NH2 [SP10-4], the “MIC (>90% inhibition)” value in assay [4] was 0.25/0.25 μg/ml; in [5], 2.5/2.5 μg/ml; in assay [6], 2.5/2.5 μg/ml; in assay [7], 0.25 µg/mL; in [8] it was 1.0/1.0 μg/ml; in [9], 0.1 µg/mL. In addition, the “LC … (100% inhibition)” value in assay [4] was 0.25/0.25 μg/ml; in assay [5] it was 2.5/2.5 μg/ml; in assay [6] it was 2.5/2.5 μg/ml; in assay [7], 0.5 µg/mL; in assay [8] it was 1.0/1.0 μg/ml; in assay [9], 0.25 µg/mL.

Turning to LRFLKKILKKLF-NH2 [SP10-1], the “MIC (>90% inhibition)” value was 1.0 µg/mL in assay [4]; 2.5 µg/mL in [5]; 2.5/2.5 μg/ml in [6]; 2.5/2.5 μg/ml in assay [7]; 1.0/1.0 μg/ml in [8]; 2.5/2.5 μg/ml in [9]. Moreover, the “LC … (100% inhibition)” value is 2.5 µg/mL in [4]; 5.0 µg/mL in [5]; 2.5/2.5 μg/ml in assay [6]; 2.5/2.5 μg/ml in [7]; 1.0/1.0 μg/ml in assay [8]; 2.5/2.5 μg/ml in assay [9].

On to LRFLRRILRRLL-NH2 [SP10-8], for which the “MIC (>90% inhibition)” value in [4] is 0.5/0.5 μg/ml; in assay [5], 2.5 µg/mL; in assay [6], 0.5 µg/mL; in assay [7] it was 0.5/0.5 μg/ml; in assay [8] it was 1.0/1.0 μg/ml; in assay [9] it was 0.5/0.5 μg/ml. The “LC … (100% inhibition)” value in assay [4] is 0.5/0.5 μg/ml; in assay [5], 5.0 µg/mL; in assay [6], 1.0 µg/mL; in assay [7] it was 0.5/0.5 μg/ml; in assay [8], 1.0/1.0 μg/ml; in assay [9], 0.5/0.5 μg/ml.

With LRIIKKILKKLI-NH2 [SP10-5], the “MIC (>90% inhibition)” value in assay [4] was 0.5/0.5 μg/ml; in assay [5], 2.5 µg/mL; in assay [6], 0.5 µg/mL; in [7], 0.5/0.5 μg/ml; in assay [8] it was 0.25 µg/mL; in [9], 0.25 µg/mL. Also, the “LC … (100% inhibition)” value in assay [4] is 0.5/0.5 μg/ml; in assay [5], 10 µg/mL; in assay [6], 2.5 µg/mL; in assay [7], 0.5/0.5 μg/ml; in assay [8], 0.5 µg/mL; in assay [9] it was 0.5 µg/mL.

Take LRIIRRILRRLI-NH2 [SP10-6]: the “MIC (>90% inhibition)” value is 2.5/2.5 μg/ml in assay [4]; 2.5 µg/mL in assay [5]; 2.5/2.5 μg/ml in assay [6]; 2.5/2.5 μg/ml in assay [7]; 1.0/1.0 μg/ml in [8]; 1.0/1.0 μg/ml in [9]. Moreover, the “LC … (100% inhibition)” value in assay [4] is 2.5/2.5 μg/ml; in [5], 5.0 µg/mL; in assay [6] it was 2.5/2.5 μg/ml; in assay [7], 2.5/2.5 μg/ml; in assay [8], 1.0/1.0 μg/ml; in assay [9], 1.0/1.0 μg/ml.

As for LRILRRLLRRLF-NH2 [SP10-7], the “MIC (>90% inhibition)” value in assay [4] was 5.0/5.0 μg/ml; in [5], >10/>10 μg/ml; in assay [6], 2.5/2.5 μg/ml; in [7], >10/>10 μg/ml; in assay [8], 0.5 µg/mL; in [9], 5.0s/5.0^ μg/ml. In addition, the “LC … (100% inhibition)” value is 5.0/5.0 μg/ml in assay [4]; >10/>10 μg/ml in assay [5]; 2.5/2.5 μg/ml in assay [6]; >10/>10 μg/ml in [7]; 1.0 µg/mL in [8]; 5.0s/5.0^ μg/ml in assay [9].
